Measurements: ChEMBL document CHEMBL3611997, “4-Fluoro-3',4',5'-trimethoxychalcone as a new anti-invasive agent. From discovery to initial validation in an in vivo metastasis model” (Eur J Med Chem, 2015)
Converted amounts (≈) assume the structure as drawn. The source made the active and inactive calls. The rule behind the calls is not given here.

Experiments:
[1] = Protein binding in human plasma assessed as recovery at 10 umol/L; type: ADME, cell-free; settings: read-out: Drug recovery
hERG [2] = target: T1, hERG (Homo sapiens, UniProt Q12809); experiment: Inhibition of human ERG assessed as reduction of tail current at 1 umol/L
[3] = Antiinvasive activity in human in BLM cells assessed as reduction of amount of cells present on filter at 10 umol/L after 24 hrs by matrigel invasion assay (reference value: 100%); type: functional; design: scale not given: the % may be the effect or the level left
Mus musculus [4] = experiment: Toxicity in Swiss nu/nu mouse assessed as hematological anomalies by measuring WBC count at 16 mg/kg, ip administered three times a week for two-week period measured on day 15 (reference value: 2420 +/- 782 /microL); type: organism-based; settings: in vivo
[5] = Intrinsic clearance in Sprague-Dawley rat liver microsomes at 0.1 umol/L; type: ADME; settings: read-out: CLH
MCF10 = experiment: Cytotoxicity against human MCF10 cells assessed as reduction of mitochondrial activity at 0.01 to 100 umol/L after 6 days by MTT assay; type: cell-based; settings: mcf10, 144 h
[6] = Toxicity in human HepG2 cells assessed as cell viability; type: cell-based; settings: HepG2 cells
SK-OV-3 = experiment: Antiinvasive activity in human in SKOV3 cells assessed as reduction of amount of cells present on filter at 0.1 umol/L after 24 hrs by matrigel invasion assay (reference value: 100%); type: functional; design: scale not given: the % may be the effect or the level left
Mus musculus [7] = experiment: Toxicity in Swiss nu/nu mouse assessed as hematological anomalies by measuring ALT level at 16 mg/kg, ip administered three times a week for two-week period measured on day 15 (reference value: 29.6 +/- 5.6 IU/L); type: organism-based; settings: in vivo
[8] = Cytotoxicity against human MCF7/6 cells assessed as reduction of cellular protein content at 0.01 to 100 umol/L after 6 days by SRB assay; type: cell-based; settings: mcf7/6, 144 h
hERG [9] = target: T1, hERG; experiment: Inhibition of human ERG assessed as reduction of tail current at 10 umol/L
MDA-MB-231 [10] = experiment: Cytotoxicity against human MDA-MB-231 cells expressing GFP assessed as reduction of mitochondrial activity at 0.01 to 100 umol/L after 6 days by MTT assay; type: cell-based; settings: mda-mb-231, 144 h
Mus musculus [11] = experiment: Toxicity in Swiss nu/nu mouse assessed as hematological anomalies by measuring creatinine level at 1.6 mg/kg, ip administered three times a week for two-week period measured on day 15 (reference value: 0.29 +/- 0.02 mg/dL); type: organism-based; settings: in vivo
MCF7/6 [12] = experiment: Antiinvasive activity in human MCF7/6 cells assessed as Cmin for progressive occupation of chicken precultured heart tissue fragments at 0.01 to 10 umol/L after 8 days by chick heart invasion assay; type: functional, cell-based
Mus musculus [13] = experiment: Toxicity in Swiss nu/nu mouse assessed as hematological anomalies by measuring WBC count at 1.6 mg/kg, ip administered three times a week for two-week period measured on day 15 (reference value: 2420 +/- 782 /microL); type: organism-based; settings: in vivo
[14] = Aqueous solubility of the compound in PBS at pH 7.4 at 200 umol/L; type: physicochemical
MCF7/6 [15] = experiment: Inhibition of cell migration in human MCF7/6 cells at 0.01 to 10 umol/L after 24 hrs by wound scratch assay; type: functional, cell-based
Mus musculus [16] = experiment: Toxicity in Swiss nu/nu mouse assessed as hematological anomalies by measuring creatinine level at 160 mg/kg, ip administered three times a week for two-week period measured on day 15 (reference value: 0.29 +/- 0.02 mg/dL); type: organism-based; settings: in vivo
Mus musculus [17] = experiment: Toxicity in human MCF7/6 cells xenografted Swiss nu/nu mouse assessed as macroscopic metastases at 160 mg/kg, ip administered thrice a week measured after 3 months; type: organism-based; settings: in vivo, 2191.5 h
Mus musculus [18] = experiment: Toxicity in Swiss nu/nu mouse assessed as histological anomalies in kidney at 1.6 to 160 mg/kg, ip administered three times a week for two-week period measured on day 15; type: organism-based; settings: in vivo
Mus musculus [19] = experiment: Toxicity in Swiss nu/nu mouse assessed as hematological anomalies by measuring AST level at 1.6 mg/kg, ip administered three times a week for two-week period measured on day 15 (reference value: 254.2 +/- 144.6 IU/L); type: organism-based; settings: in vivo
[20] = Toxicity in human HepG2 cells assessed as cell viability at 0.1 umol/L; type: cell-based; settings: read-out: Activity
[21] = Antiinvasive activity in human in BLM cells assessed as reduction of amount of cells present on filter at 0.1 umol/L after 24 hrs by matrigel invasion assay (reference value: 100%); type: functional; design: scale not given: the % may be the effect or the level left
[22] = Cytotoxicity against human MCF7/6 cells assessed as reduction of mitochondrial activity at 10 to 100 umol/L after 8 days by MTT assay; type: cell-based; settings: mcf7/6, 192 h
Homo sapiens = species on record: Homo sapiens; experiment: Displacement of [3H]-quinuclydinyl benzylate from muscarinic receptor (unknown origin) at 10 umol/L
[23] = Intrinsic clearance in Sprague-Dawley rat liver S9 fraction at 0.1 umol/L; type: ADME, subcellular; settings: read-out: CLH
[24] = Half life of the compound in PBS at pH 7.4 at 1 umol/L; type: ADME
Mus musculus [25] = experiment: Toxicity in Swiss nu/nu mouse assessed as hematological anomalies by measuring creatinine level at 16 mg/kg, ip administered three times a week for two-week period measured on day 15 (reference value: 0.29 +/- 0.02 mg/dL); type: organism-based; settings: in vivo
[26] = Intrinsic clearance in human liver S9 fraction at 0.1 umol/L; type: ADME, subcellular; settings: read-out: CLH
[27] = Antiinvasive activity in human MCF7/6 cells assessed as Cmin for progressive occupation of chicken precultured heart tissue fragments after 8 days by chick heart invasion assay; type: functional
Mus musculus [28] = experiment: Toxicity in Swiss nu/nu mouse assessed as hematological anomalies by measuring WBC count at 160 mg/kg, ip administered three times a week for two-week period measured on day 15 (reference value: 2420 +/- 782 /microL); type: organism-based; settings: in vivo
Mus musculus [29] = experiment: Toxicity in Swiss nu/nu mouse assessed as histological anomalies in liver at 1.6 to 160 mg/kg, ip administered three times a week for two-week period measured on day 15; type: organism-based; settings: in vivo
MDA-MB-231 [30] = experiment: Cytotoxicity against human MDA-MB-231 cells expressing GFP-Luc assessed as reduction of mitochondrial activity at 0.01 to 100 umol/L after 6 days by MTT assay; type: cell-based; settings: mda-mb-231, 144 h
Mus musculus [31] = experiment: Toxicity in Swiss nu/nu mouse assessed as hematological anomalies by measuring AST level at 160 mg/kg, ip administered three times a week for two-week period measured on day 15 (reference value: 254.2 +/- 144.6 IU/L); type: organism-based; settings: in vivo

T1 sequence (Q12809 whole entry): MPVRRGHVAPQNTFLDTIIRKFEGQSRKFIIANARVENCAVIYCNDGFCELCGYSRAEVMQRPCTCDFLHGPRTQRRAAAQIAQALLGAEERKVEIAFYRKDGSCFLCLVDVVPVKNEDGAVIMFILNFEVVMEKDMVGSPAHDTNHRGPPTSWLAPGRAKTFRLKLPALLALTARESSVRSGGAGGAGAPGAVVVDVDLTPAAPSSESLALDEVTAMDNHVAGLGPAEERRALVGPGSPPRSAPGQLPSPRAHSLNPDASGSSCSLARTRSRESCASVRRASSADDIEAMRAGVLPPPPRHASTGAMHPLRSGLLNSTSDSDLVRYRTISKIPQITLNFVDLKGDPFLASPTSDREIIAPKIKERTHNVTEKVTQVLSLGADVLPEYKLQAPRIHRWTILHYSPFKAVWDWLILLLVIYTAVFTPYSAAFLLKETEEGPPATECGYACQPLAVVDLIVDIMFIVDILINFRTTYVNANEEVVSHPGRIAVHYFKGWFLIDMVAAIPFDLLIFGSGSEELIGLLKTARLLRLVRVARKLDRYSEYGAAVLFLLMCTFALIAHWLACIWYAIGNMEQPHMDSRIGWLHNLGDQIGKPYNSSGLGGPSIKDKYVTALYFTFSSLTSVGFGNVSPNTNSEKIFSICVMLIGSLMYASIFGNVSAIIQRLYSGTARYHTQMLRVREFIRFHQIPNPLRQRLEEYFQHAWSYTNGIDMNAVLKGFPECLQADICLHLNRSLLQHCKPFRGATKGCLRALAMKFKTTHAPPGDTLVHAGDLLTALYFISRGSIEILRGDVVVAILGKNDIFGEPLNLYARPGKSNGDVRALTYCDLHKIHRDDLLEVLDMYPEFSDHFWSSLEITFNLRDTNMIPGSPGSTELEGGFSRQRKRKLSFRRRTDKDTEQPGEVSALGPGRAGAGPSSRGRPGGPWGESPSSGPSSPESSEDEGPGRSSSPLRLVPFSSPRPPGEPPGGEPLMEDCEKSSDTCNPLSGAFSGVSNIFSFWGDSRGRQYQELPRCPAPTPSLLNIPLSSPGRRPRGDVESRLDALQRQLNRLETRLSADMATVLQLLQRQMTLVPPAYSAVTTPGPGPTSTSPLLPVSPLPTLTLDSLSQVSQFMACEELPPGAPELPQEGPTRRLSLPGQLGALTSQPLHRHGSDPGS

Question: For `COc1cc(C(=O)/C=C/c2ccc(F)cc2)cc(OC)c1OC`, which recovery at 10 µM [1] is on record?
Answer: 90%

Question: What about the inhibition at 1 µM (hERG [2]) of the same compound?
Answer: 9.8%

Question: And the Activity [3]?
Answer: 7%

Question: What about the Activity (Mus musculus [4]) of the same compound?
Answer: 5960 µL⁻¹

Question: What about the microsomal CLint at 0.1 µM [5] of the same compound?
Answer: 339 µL/min/mg

Question: What about the Activity (MCF10) of the same compound?
Answer: Non-toxic

Question: And the EC50 [6]?
Answer: 10 µM

Question: What about the Activity (SK-OV-3) of the same compound?
Answer: 85%

Question: What about the Activity (Mus musculus [7]) of the same compound?
Answer: 28.1 IU/L

Question: What about the Activity [8] of the same compound?
Answer: Non-toxic

Question: What about the inhibition at 10 µM (hERG [9]) of the same compound?
Answer: 28.3%

Question: And the Activity (MDA-MB-231 [10])?
Answer: Non-toxic

Question: And the Activity (Mus musculus [11])?
Answer: 0.22 mg/dL

Question: What about the Activity (MCF7/6 [12]) of the same compound?
Answer: Active

Question: What about the Activity (Mus musculus [13]) of the same compound?
Answer: 4400 µL⁻¹

Question: And the solubility at 200 µM [14]?
Answer: 2.4 µM (≈ 0.759 µg/mL)

Question: What about the inhibition (MCF7/6 [15]) of the same compound?
Answer: inactive

Question: What about the Activity (Mus musculus [16]) of the same compound?
Answer: 0.28 mg/dL

Question: What about the Activity (Mus musculus [17]) of the same compound?
Answer: Non-toxic

Question: What about the Activity (Mus musculus [18]) of the same compound?
Answer: Non-toxic

Question: What about the Activity (Mus musculus [19]) of the same compound?
Answer: 135.5 IU/L

Question: And the viability at 0.1 µM [20]?
Answer: 93.7%

Question: What about the Activity [21] of the same compound?
Answer: 20%

Question: What about the Activity [22] of the same compound?
Answer: Toxic

Question: And the inhibition (Homo sapiens)?
Answer: -5.1%

Question: And the microsomal CLint at 0.1 µM [23]?
Answer: 116 µL/min/mg

Question: And the half-life at 1 µM [24]?
Answer: > 4 h

Question: What about the Activity (Mus musculus [25]) of the same compound?
Answer: 0.32 mg/dL

Question: What about the microsomal CLint at 0.1 µM [26] of the same compound?
Answer: 57.3 µL/min/mg

Question: What about the Cmin [27] of the same compound?
Answer: 0.01 µmol/L

Question: What about the Activity (Mus musculus [28]) of the same compound?
Answer: 3180 µL⁻¹

Question: And the Activity (Mus musculus [29])?
Answer: Non-toxic

Question: And the Activity (MDA-MB-231 [30])?
Answer: Non-toxic

Question: What about the Activity (Mus musculus [31]) of the same compound?
Answer: 207.8 IU/L
